In ChEMBL document CHEMBL2434882, “A novel [1,2,4] triazolo [1,5-a] pyrimidine-based phenyl-linked steroid dimer: synthesis and its cytotoxic activity” (Eur J Med Chem, 2013):
The source made the active and inactive calls. The calls are words filed in the database; no cut-off is given here.

Legend:
[1] = Upregulation of p53 protein expression in human EC109 cells at 5 to 10 uM after 24 hrs by Western blot analysis; type: functional, cell-based; conditions: ECa-109
[2] = Cell cycle arrest in human EC109 cells assessed as accumulation at G0/G1 phase at 10 uM after 12 hrs by propidium iodide staining-based flow cytometric analysis (reference value: 50.87%); type: functional; conditions: ECa-109
[3] = Cell cycle arrest in human EC109 cells assessed as accumulation at G2/M phase at 2.5 uM after 12 hrs by propidium iodide staining-based flow cytometric analysis (reference value: 13.72%); type: functional; conditions: ECa-109
[4] = Cell cycle arrest in human EC109 cells assessed as accumulation at G0/G1 phase at 2.5 uM after 12 hrs by propidium iodide staining-based flow cytometric analysis (reference value: 50.87%); type: functional; conditions: ECa-109
[5] = system: ECa-109 cell line; experiment: Induction of apoptosis in human EC109 cells assessed as live cells at 20 uM after 24 hrs by annexin V-FITC/propidium iodide staining-based flow cytometric analysis (reference value: 93.6%); type: functional
[6] = system: ECa-109 cell line; experiment: Induction of apoptosis in human EC109 cells assessed as damaged cells at 2.5 uM after 24 hrs by annexin V-FITC/propidium iodide staining-based flow cytometric analysis (reference value: 0.1%); type: functional
[7] = system: ECa-109 cell line; experiment: Induction of apoptosis in human EC109 cells assessed as damaged cells at 40 uM after 12 hrs by annexin V-FITC/propidium iodide staining-based flow cytometric analysis (reference value: 0.4%); type: functional
[8] = system: ECa-109 cell line; experiment: Induction of apoptosis in human EC109 cells assessed as early apoptotic cells at 10 uM after 12 hrs by annexin V-FITC/propidium iodide staining-based flow cytometric analysis (reference value: 6.1%); type: functional
[9] = system: ECa-109 cell line; experiment: Induction of apoptosis in human EC109 cells assessed as damaged cells at 2.5 uM after 12 hrs by annexin V-FITC/propidium iodide staining-based flow cytometric analysis (reference value: 0.4%); type: functional
[10] = Selectivity ratio of IC50 for human L02 cells to IC50 for human SMMC7721 cells; type: cell-based, SMMC-7721; conditions: L02 cells versus SMMC7721 cells, read-out: Ratio IC50
[11] = system: ECa-109 cell line; experiment: Induction of apoptosis in human EC109 cells assessed as early apoptotic cells at 2.5 uM after 12 hrs by annexin V-FITC/propidium iodide staining-based flow cytometric analysis (reference value: 6.1%); type: functional
[12] = system: ECa-109 cell line; experiment: Induction of apoptosis in human EC109 cells assessed as induction of cytochrome c release from mitochondria at 5 to 10 uM after 24 hrs by Western blot analysis; type: functional, cell-based

C[C@]12CC[C@H](O)CC1=CC[C@@H]1[C@@H]2CC[C@]2(C)c3nc4ncnn4c(-c4cccc(-c5c6c(nc7ncnn57)[C@@]5(C)CC[C@H]7[C@@H](CC=C8C[C@@H](O)CC[C@@]87C)[C@@H]5C6)c4)c3C[C@@H]12
Activity [1]: Active | Activity [2]: 48.6% | Activity [3]: 17.9% | Activity [4]: 48.5% | Activity [5]: 7.2% | Activity [6]: 0.2% | Activity [7]: 7.9% | Activity [8]: 19.9% | Activity [9]: 1.7% | selectivity ratio [10]: 49 | Activity [11]: 26.9% | Activity [12]: Active
